Data set [1] deals with T1, EphA4 (UniProt Ref: P54764) (Homo sapiens, UniProt P54764).
T1 construct: purchased Reaction Biology
In words: EphA4 assay (Reaction Biology HotSpot radioactive kinase assay). Conditions: EphA4 potency; ATP 10 μM. Type of data set: biochemical. The procedure:
Inhibition of EphA4 (UniProt Ref: P54764) by a test compound is determined by a commercially available Reaction Biology proprietary nanoliter radioactive HotSpot^SM assay (Reaction Biology, One great valley parkway, Suite 2, Malvern Pa., 19355, USA). The principle of the assay consists of the measurement of incorporated ^33P into poly[Glu:Tyr] (4:1) (0.2 mg/mL) when the substrate is phosphorylated by the enzyme using [^33P]-γ-ATP and ATP (10 μM).
To determine the IC50, a serial dilution of compound is tested starting from 10 or 3 μM (highest dilution) with a 1/3 dilution.

A short description of data set [2]: In vivo efficacy in the rat MNX (meniscectomised) model of osteoarthritis, OARSI score. Also noted: species or system female Lewis rat. Conditions: versus MNX-vehicle. An excerpt:
In vivo efficacy was studied in a female Lewis meniscectomised rat (MNX) model. The MNX rat model is a well-validated disease model of osteoarthritis (Janusz et al., 2002; Pritzker et al., 2006; Bendele et al., 2001).
Osteoarthritis is induced by meniscectomy at day 0 (D0) in the right leg of each rat by a transection of the medial collateral ligament and 4 mm of ligament are removed. Internal part of the meniscus is transected vertically into two flaps which are pushed to the front and the back of the synovial cavity. Sham animals undergo only anaesthesia, skin and muscle incision then suture. On day 1, rats are randomly assigned to a treatment group (n=20 per group) according to their body weight, in order to have a homogenous distribution. From D2 to D21, rats are dosed per os (po) once daily (qd) or twice a day (bid) with compounds formulated in methylcellulose (MC) 0.5% or in HPβCD 10% pH3.0.
After at least 7 days of treatment, blood is sampled at 4 time points post administration: 0, 1, 3 and 6 h (and assuming 24 h is equal to the pre-dose sample), in order to determine steady-state plasma exposure.
At sacrifice, the right tibia of each rat is collected and processed for histological analysis. After 48 h of fixation in 4% formaldehyde, tibias are decalcified in Osteosoft for 7 days, and cut into 2 half parts prior to embedding face to face in paraffin. Five series of sections are cut at 200 μm intervals, covering about 1.5 mm of the middle part of the bone. One series of slides is stained with Safranin O and light green for morphological evaluation and OARSI scoring. The other series of slides are mounted with DAPI for chondrocyte density measurement.
The extent of cartilage injury reflecting osteoarthritis in the tibial plateau is evaluated and scored using the OARSI method based on the grading and the staging of cartilage lesion (Pritzker et al., 2006). The OARSI scoring is assessed in a blinded manner by two different readers. For each tibia, one score is attributed as the median of the OARSI score of the 5 sections.
OARSI score=grade×stage (1 to 24)
Grade=lesion depth into cartilage area, providing information on arthritis severity.
Stage=lesion extent over cartilage surface, providing information on arthritis extent.
For statistical analysis, medians of groups are compared with a stratified Kruskal-Wallis test followed by Dunnett multiple comparison post hoc test.
Significance levels: *p<0.05; **p<0.01; ***p<0.001 versus MNX-vehicle. Statistical analyses are done on all groups of the studies

The nature of data set [3]: Pharmacokinetics in mice (exposure, AUC). The note with it: male, CD1, plasma, mouse, po. The class given is in vivo. The method, then:
This study was performed with 42 naïve male CD1 mice (18-20 g, 4-5 weeks old). Mice are obtained from Janvier, Le Genest St Isle, France.
A controlled environment was maintained in the room with optimal conditions of approximately 15 air changes per hour, a temperature of 22±2 C, a relative humidity of 30-70% and a 12 hour light/12 hour dark cycle (nightlight during the night period).
Pelleted diet for rodents (UAR A04C-10) was used and was provided ad libitum. Before p.o. dosing, the animals are deprived of food for at least 12 hours before compound administration and 4 hours after administration. All animals had free access to tap water.
[…] The i.v. bolus administration is given with a dose volume of 5 mL/kg and the oral administration is given with a dose volume of 10 mL/kg. Actual dose volumes are based on the mean of 10 body weights.
The vehicle used to formulate compounds for oral administration is methylcellulose in water (0.5% in water)
From all animals approximately 500 μL blood samples are collected by intra-cardiac puncture under gaseous anesthesia and placed into tubes containing Li-heparin as anticoagulant. Blood samples are collected at various time points (i.v.: 0.05, 0.25, 0.5, 1, 3, 5 and 8 hours after dosing; p.o.: 0.25, 0.5, 1, 3, 5, 8 and 24 hours after dosing). Each mouse is sampled once and euthanized.
Blood is kept on ice. Within 1 hour after sampling, blood is centrifuged at 5,000 rpm for 10 min at 4° C. Immediately after centrifugation, the resulting plasma samples are collected into polypropylene tubes and are kept frozen at −20° C. pending bioanalysis.
Plasma samples are assayed by LC-MS/MS. Plasma proteins are precipitated with an excess of methanol containing the internal standard and the corresponding supernatant is injected on a C18 column. Analytes are eluted out the HPLC system by increasing the percentage of the organic mobile phase. An API4000 mass spectrometer (AB Sciex™) is used for the detection and quantification.
Pharmacokinetic parameters are calculated by non-compartmental analysis using WinNonlin® software (Pharsight, version 5.2).

pIC50: −log10 of the molar value.

Here are results for 7 compounds from US9062051B2, “Compounds and pharmaceutical compositions thereof for the treatment of proliferative disorders” (GALAPAGOS NV, priority 2014, dated 2015).

T1 sequence (P54764 20-986): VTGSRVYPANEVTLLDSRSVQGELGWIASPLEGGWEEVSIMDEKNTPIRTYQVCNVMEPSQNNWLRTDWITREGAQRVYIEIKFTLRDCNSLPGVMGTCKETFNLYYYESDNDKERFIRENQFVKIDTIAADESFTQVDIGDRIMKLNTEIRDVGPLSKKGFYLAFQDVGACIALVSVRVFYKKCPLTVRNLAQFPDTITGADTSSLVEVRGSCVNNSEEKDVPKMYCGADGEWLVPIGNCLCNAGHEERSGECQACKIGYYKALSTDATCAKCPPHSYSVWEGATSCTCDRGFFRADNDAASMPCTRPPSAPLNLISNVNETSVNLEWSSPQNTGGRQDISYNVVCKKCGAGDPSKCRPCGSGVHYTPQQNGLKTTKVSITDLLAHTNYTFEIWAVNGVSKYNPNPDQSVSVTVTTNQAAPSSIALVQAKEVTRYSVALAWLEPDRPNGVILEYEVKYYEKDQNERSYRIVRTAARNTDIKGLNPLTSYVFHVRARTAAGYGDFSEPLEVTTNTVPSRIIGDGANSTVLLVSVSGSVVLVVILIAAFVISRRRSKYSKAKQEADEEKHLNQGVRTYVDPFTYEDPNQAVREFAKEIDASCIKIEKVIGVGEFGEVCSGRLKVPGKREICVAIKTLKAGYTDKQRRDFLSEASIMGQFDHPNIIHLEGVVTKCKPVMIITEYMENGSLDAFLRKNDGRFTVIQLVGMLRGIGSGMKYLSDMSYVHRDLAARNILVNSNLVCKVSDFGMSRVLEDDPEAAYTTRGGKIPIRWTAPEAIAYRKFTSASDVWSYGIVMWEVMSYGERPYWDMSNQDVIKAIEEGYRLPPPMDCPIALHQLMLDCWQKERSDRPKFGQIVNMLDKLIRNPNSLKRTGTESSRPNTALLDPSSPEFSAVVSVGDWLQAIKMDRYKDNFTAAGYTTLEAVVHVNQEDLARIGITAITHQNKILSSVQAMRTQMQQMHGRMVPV

As to `COc1cc(OC)cc(C(=O)Nc2ccc(C)c(-c3ccc4c(C(C)O)n[nH]c4n3)c2)c1` (stereo not shown) [Compound 9, N-{3-[3-(1-Hydroxy-ethyl)-1H-pyrazolo[3,4-b]pyridin-6-yl]-4-methyl-phenyl}-3,5-dimethoxy-benzamide], the pIC50 in data set [1] was 7.00 to 7.30. Also, in data set [2] (30 mg/kg), the OARSI score entry is on record as “ns”.

With `Cc1ccc(NC(=O)c2cccc(N(C)C)c2)cc1-c1ccc2c(C(O)CN3CCOCC3)n[nH]c2n1` (stereo not shown) [Compound 6, 3-Dimethylamino-N-{3-[3-(1-hydroxy-2-morpholin-4-yl-ethyl)-1H-pyrazolo[3,4-b]pyridin-6-yl]-4-methyl-phenyl}-benzamide], the OARSI score result in data set [2] (30 mg/kg) is given as “ns”.

With `CCc1n[nH]c2nc(-c3cc(NC(=O)c4cc(OC)cc(OC)c4)cnc3C)ccc12` [Compound 13, N-[5-(3-Ethyl-1H-pyrazolo[3,4-b]pyridin-6-yl)-6-methyl-pyridin-3-yl]-3,5-dimethoxy-benzamide], the OARSI score entry in data set [2] (30 mg/kg) is given as “ns”.

As for `Cc1ccc(NC(=O)c2cccc(C(F)(F)F)c2)cc1-c1ccc2c([C@H](C)O)n[nH]c2n1` [Compound 55, N-{3-[3-((S)-1-Hydroxy-ethyl)-1H-pyrazolo[3,4-b]pyridin-6-yl]-4-methyl-phenyl}-3-trifluoromethyl-benzamide], the pIC50 in data set [1] was 7.30 to 7.60. The AUC in data set [3] (5 mg/kg) worked out at 851 ng·h/mL; in data set [3] (30 mg/kg), 31600 ng·h/mL. Further, the OARSI score in data set [2] (30 mg/kg) was −23%, p < 0.05.

For `Cc1ccc(NC(=O)c2cccc(C(F)(F)F)c2)cc1-c1ccc2c(C(O)CN3CCOCC3)n[nH]c2n1` (stereo not shown) [Compound 2, N-{3-[3-(1-Hydroxy-2-morpholin-4-yl-ethyl)-1H-pyrazolo[3,4-b]pyridin-6-yl]-4-methyl-phenyl}-3-trifluoromethyl-benzamide], in data set [1], the negative logarithm of the IC50 (pIC50) is 7.60 to 11.00. Further, the OARSI score in data set [2] (20 mg/kg) is on record as −17%, p < 0.05.

`COc1cc(OC)cc(C(=O)Nc2ccc(C)c(-c3ccc4c(C5(O)CC5)n[nH]c4n3)c2)c1` [Compound 29, N-{3-[3-(1-Hydroxy-cyclopropyl)-1H-pyrazolo[3,4-b]pyridin-6-yl]-4-methyl-phenyl}-3,5-dimethoxy-benzamide]: the pIC50 in data set [1] was < 7.00. In addition, in data set [2] (15 mg/kg), the OARSI score result is “ns”.

In data set [3] (30 mg/kg), `Cc1ccc(NC(=O)c2cccc(C(F)(F)F)c2)cc1-c1cc(C)c2c(N)n[nH]c2n1` [Compound A, N-(3-(3-amino-4-methyl-1H-pyrazolo[3,4-b]pyridin-6-yl)-4-methylphenyl)-3-(trifluoromethyl)benzamide] displayed an AUC of 1130 ng·h/mL.

In general, pIC50 refers to −log10 of the IC50, conventionally taken in molar units. The term AUC denotes the area under the concentration-time curve, a measure of exposure. Read a high AUC as high exposure.
